According to patent US6350755B1, “Inhibitors of prenyl-protein transferase” (Merck & Co., Inc., priority 2000, dated 2002):

Biological target: T1, human FPTase (Homo sapiens, UniProt P49354+P49356)
T1 construct: made in house
Test: In vitro inhibition of Ras farnesyl transferase
Assay type: biochemical
Settings: recombinant FPTase; 650 nM Ras-CVLS, 100 nM farnesyl diphosphate; 30° C.; read-out: IC50 for inhibitory activity against human FPTase
Method: Transferase Assays. Isoprenyl-protein transferase activity assays are carried out at 30° C. unless noted otherwise. A typical reaction contains (in a final volume of 50 μL): [^3H]farnesyl diphosphate, Ras protein, 50 mM HEPES, pH 7.5, 5 mM MgCl2, 5 mM dithiothreitol, 10 μM ZnCl2, 0.1% polyethyleneglycol (PEG) (15,000-20,000 mw) and isoprenyl-protein transferase. The FPTase employed in the assay is prepared by recombinant expression as described in Omer, C. A., Kral, A. M., Diehl, R. E., Prendergast, G. C., Powers, S., Allen, C. M., Gibbs, J. B. and Kohl, N. E. (1993) Biochemistry 32:5167-5176. After thermally pre-equilibrating the assay mixture in the absence of enzyme, reactions are initiated by the addition of isoprenyl-protein transferase and stopped at timed intervals (typically 15 min) by the addition of 1 M HCl in ethanol (1 mL). The quenched reactions are allowed to stand for 15 m (to complete the precipitation process). After adding 2 mL of 100% ethanol, the reactions are vacuum-filtered through Whatman GF/C filters. Filters are washed four times with 2 mL aliquots of 100% ethanol, mixed with scintillation fluid (10 mL) and then counted in a Beckman LS3801 scintillation counter.
For inhibition studies, assays are run as described above, except inhibitors are prepared as concentrated solutions in 100% dimethyl sulfoxide and then diluted 20-fold into the enzyme assay mixture. […]

IC50: ≤ 5 µM
Structure (SMILES): Cn1cnc2c1C1c3ccc(C#N)c(c3)Oc3cccc(c3)S(=O)(=O)NCCC(=O)N1CC2 (racemic) [Example 1]
